{"source": "patent US6858230B1", "about": "“Process for producing medicinal composition of basic hydrophobic medicinal compound” (Shionogi & Co., Ltd., priority 1999, dated 2005)", "key": {"[1]": {"test": "Dispersibility of active ingredient in acidic suspension with various kinds of acids", "format": "physicochemical", "conditions": "at preparation", "protocol": "50 g of PVP K30 was dissolved to 800 g of purified water. These aqueous solution were acidified by DL-Malic acid. The compound (I-1) was suspended in the acidic solution under stirring. The suspension was neutralized with 115 g of 13% NaOH aqueous solution to give a suspension. In place of malic acid in Example 3-1, citric acid was used. In place of malic acid in Example 3-1, phosphoric acid was used. No acid was used. Dispersibility of the compound (I-1) in an acidic suspension obtained in Example 3-1 to 3-4 including various kinds of acids was examined. Dispersibility was observed by the naked eyes at the time of preparation of an suspension."}, "[2]": {"test": "Dispersibility of a basic compound in a suspension", "format": "physicochemical", "conditions": "suspension with DL-malic acid, neutralized with NaOH (Examples 3-1, 4, 5)", "protocol": "50 g of PVP K30 was dissolved to 800 g of purified water. These aqueous solution were acidified by DL-Malic acid. The compound (I-1) was suspended in the acidic solution under stirring. The suspension was neutralized with 115 g of 13% NaOH aqueous solution to give a suspension. In place of the compound (I-1) in Example 3-1, pindolol was used. In place of the compound (I-1) in Example 3-1, noscapine was used. Dispersibility of the compound (I-1) in an acidic suspension obtained in Example 3-1 to 3-4 including various kinds of acids was examined. Dispersibility was observed by the naked eyes at the time of preparation of an suspension. Dispersibility of active ingredient in the suspension obtained in Example 3-1, 4 and 5 was examined in accordance with Experiment 4."}}}
{"compound": "CC(C)c1nc(COC(N)=O)n(Cc2ccncc2)c1Sc1cc(Cl)cc(Cl)c1", "note": "[Compound (I-1), 5-(3,5-dichlorophenyl)thio-4-isopropyl-1-(4-pyridyl)methyl-1H-imidazol-2-ylmethyl carbamate]", "values": [{"measurement": "Dispersibility of drug substance", "setting": "[1]; suspension with citric acid (Example 3-2)", "result": "Good"}, {"measurement": "Dispersibility of drug substance", "setting": "[1]; suspension with malic acid (Example 3-1)", "result": "Good"}, {"measurement": "Dispersibility of drug substance", "setting": "[1]; suspension with no acid (Reference Example 3-4)", "result": "Formation"}, {"measurement": "Dispersibility of drug substance", "setting": "[1]; suspension with phosphoric acid (Example 3-3)", "result": "Good"}, {"measurement": "Dispersibility of drug substance", "setting": "[2]", "result": "Good"}]}
{"compound": "COc1ccc2c(c1OC)C(=O)O[C@@H]2[C@H]1c2c(cc3c(c2OC)OCO3)CCN1C", "note": "[Noscapine, noscapine]", "values": [{"measurement": "Dispersibility of drug substance", "setting": "[2]", "result": "Good"}]}
{"compound": "CC(C)NCC(O)COc1cccc2[nH]ccc12", "note": "(stereo not shown) [Pindolol, pindolol]", "values": [{"measurement": "Dispersibility of drug substance", "setting": "[2]", "result": "Good"}]}
